Experimental data from publication PMC11372076, “A dual inhibitor of PIP5K1C and PIKfyve prevents SARS-CoV-2 entry into cells” (Experimental & Molecular Medicine, 2024).
Read-outs that look alike come from different tables or passages of the source.

How the values were obtained:
[1] = tested on: cathepsin D; experiment: Cathepsin D maturation by Western blot; type: cell-based
[2] = tested on: Vero cells
[3] = tested on: RPE1 cells; experiment: Western blot of autophagy-monitoring proteins SQSTM1/p62 and LC3-II; type: cell-based
Description: Fig. 2 UNI418 inhibits autophagy. a Western blot analysis of p62, LC3B-I, LC3B-II and GAPDH in the presence of UNC3230, apilimod and UNI418. b Immunofluorescence staining with LC3B (green) and p62 (red) antibodies upon treatment with UNC3230, apilimod and UNI418, and images within the white rectangular boxes are magnified on the right side. Scale bar, 20 µm. c The area of fluorescence intensity from immunofluorescence images (b) was quantified after UNC3230, apilimod and UNI418 treatments. d, e Quantification of autophagic flux under normal conditions and under HBSS-induced starvation conditions with or without UNI418 treatment. RPE1 cells were treated with UNI418 (0.5 µM or 1 µM) for 2 h in the presence or absence of a lysosomal inhibitor (bafilomycin A1, BFA). Representative Western blot images (d) and the graph showing the average of 4 independent experiments (e). The error bars indicate the S.D. Statistical analysis was performed using two-way ANOVA; *p < 0.05, ***p < 0.001.
Supplementary Materials and Methods
The whole cell extracts were prepared by lysis of harvested cells with M -PER Mammalian protein extraction reagent (Thermo Fisher Scientific). The protein concentrations were determined by Bradford protein assay (Bio- Rad). The 10 to 20 μ g of prepared proteins were separated by the SDS-PAGE and transferred to PVDF membrane, which were then blocked in 5% skim milk for 30 minutes at room temperature. […] The images were obtained and quantified by Fusion solo ChemiDoc system (Vilber).
Autophagic flux assay was analyzed essentially as previously described1,2.
Briefly, RPE1 cells were treated with UNI418 (0, 0.5, or 1 µM) for 2 h with/without bafilomycin A1 to inhibit lysosomal degradation under normal growth media or HBSS. […] The LC3- II bands were quantified using Fusion Solo ChemiDoc system (Vilber) and normalized to GAPDH bands.
Autophagy flux was calculated by subsidizing the lysosomal inhibitor-treated cells to non- treatment cells in both normal growth media and HBSS-induced starvation with 0, 0.5, or 1 µM UNI418. […]

[4] = tested on: SARS-CoV-2; experiment: microbe, parasite or virus in culture; type: cell-based, SARS-CoV-2 (hCoV-19/Korea/KCDC06/2020); settings: for EC50: read-out: EC50 (reducing number of spike-positive cells by 50%)
[5] = tested on: Wuhan-Hu-1 spike-pseudotyped virus; experiment: microbe, parasite or virus in culture; type: cell-based, SARS-CoV-2; settings: read-out: concentration that inhibited spike-mediated viral entry by 50% compared to maximal inhibition
[6] = tested on: RPE1 cells; experiment: Vacuolization analysis; type: cell-based
Experimental: CUGAUCAAGAU G A -3 and PIKfyve#2 siRNA 5'-
[…] -3'. siRNA oligonucleotides were purchased from Genolution, Sigma- Aldrich and Integrated DNA Technologies.
These siRNAs were transfected into the cell using lipofectamine RNAiMAX (Invitrogen, 13778150) following manufacturer ’s protocol.
RPE1 cells were treated with UNI418 at indicated concentration for over-night.
After that, the image was taken by EVOS M5000 (Thermo Fisher Scientific).
RPE1 cells were treated with UNI418 at the different concentration during the time. Live cell images were taken by Lionheart LX Automated Microscope and analyzed in Gen5 (Agilent).
RPE1 cells were treated with indicated doses of UNI418 overnight. To analyze PIP2 level by flow cytometry, trypsinized cells were fixed with 4% paraformaldehyde for 10 min at room temperature. The fixed cells were permeabilized with 0.2% PBS-T (Triton X-100) for 5min and blocked with 5% Bovine Serum Albumin (BSA), and stained with the primary antibody for 4h at 4°C. Cells were washed three times with 1% BSA-PBS and incubated with the fluorescence- conjugated secondary antibody Alexa Fluor® 488 AffiniPure Goat Anti-Mouse IgG (H+L) (Jackson ImmunoResearch,111- 545- 003) for 1h at room temperature analyzed by BD Accuri C6 Plus flow cytometer (BD Biosciences). […]

[7] = tested on: Vero cells; experiment: Endosomal pH change test with acridine orange; type: cell-based; settings: 1 µM for 1 h
Experimental: This image-based experiment was performed according to our previous report with some modifications. Vero cells were cultured in a glass bottom 35 mm dish (6 × 10^4 cells per well) overnight. Each compound, including 1 µM UNC3230, apilimod or UNI418, was added to Vero cells for 1 h at 37 °C. The cells were stained with acridine orange (Sigma‒Aldrich, A9231) at a final concentration of 4 µg/mL for 30 min. After washing with PBS twice, images were acquired using a confocal microscope (Zeiss LSM 700, Baden-Württemberg, Germany) at two emission wavelengths, 493 to 560 nm and 590 to 720 nm, with excitation at 488 nm. The green-to-red ratio or vacuole size was measured using the built-in software ZEN 3.1.
Fig. 3 UNI418 negatively affects autophagosome-lysosome fusion and endosome acidification. a Live-cell imaging of HEK293T cells stably expressing mCherry-GFP-LC3 treated with 0.5 μM UNI418 at the indicated time points; the images within the white rectangular boxes are magnified on the right side. Scale bar, 30 µm. The number (b) and area (c) of GFP-positive dots per cell were quantified by ImageXpress. d Immunofluorescence images illustrating the inhibition of endolysosomal acidification by UNI418. Vero cells were treated with the mock control or 1 µM UNC3230, apilimod or UNI418 for 1 h at 37 °C. Acridine orange (4 µg/mL) was added to the compound-treated live cells, followed by additional incubation for 30 min. The cells were analyzed by confocal microscopy using two emission wavelengths at 493–560 (green) and 590–720 nm (red) after excitation at 488 nm. Merged images are presented, and images within the white rectangular boxes are magnified on the right side. Original magnification, 630×. The green-to-red fluorescence intensity ratio (e) and the area of fluorescent spots (f) were quantified. b, c, e, f The data are presented as the means ± SEMs, with a minimum of 200 spots. Statistical significance was determined by Student’s t test; *p < 0.05, **p < 0.01, ***p < 0.001 and ****p < 0.0001. n.s., not significant.

[8] = tested on: ACE2-mediated endocytosis in HEK293T cells; type: cell-based; settings: 20 μg/mL spike-RBD, 2 h
[9] = in vitro; settings: African green monkey

In the case of NC(=O)c1nc(Nc2ccccc2)sc1NC(=O)C1CCCCC1 [UNC3230], the “proteolytic cleavage (maturation) of cathepsin D” value [1] is reported as “did not”, the “cytotoxicity on Day 2” value ([2]; Vero cells, Day 2) is reported as “highly toxic” and the CC50 ([2]; mock-infected Vero cells, MTT, Day 1) is reported as > 100 µM. For the same compound, the “accumulation of SQSTM1/p62 and LC3-II” value [3] was “did not have the same effect”, the EC50 [4] was 95.1 µM and the IC50 [5] was 4 µM. The vacuolization [6] was “did not induce vacuoles”, the “green-to-red ratio of fluorescent spots relative to mock-treated sample” value [7] was 2.6 fold and the “ACE2-mediated endocytosis triggered by spike-RBD” value ([8]; 0.5 μM compound) was “successfully inhibited”.
In the case of O=C(N/N=C/c1ccc(O)c(O)c1)c1cc2ccccc2cc1O [dynasore], the “ACE2-mediated endocytosis triggered by spike-RBD” value ([8]; 0.1 mM dynasore) is reported as “successfully inhibited”.
With CCC(CC)COC(=O)[C@H](C)N[P@](=O)(OC[C@H]1O[C@@](C#N)(c2ccc3c(N)ncnn23)[C@H](O)[C@@H]1O)Oc1ccccc1 [remdesivir] the EC50 ([4]; Severe acute respiratory syndrome coronavirus 2, Vero, 48 h) was 8.9 µM, the “selectivity index (SI), ratio of CC50 to EC50” value ([4]; Vero cells, Day 2) was > 11.2 and the CC50 [9] was > 100 µM.
